Laboratory results from patent US9862707B2, “TrkA kinase inhibitors, compositions and methods thereof” (Merck Sharp & Dohme Corp., priority 2014, dated 2018).
pIC50: −log10 of the molar value.

Molecular target: human TrkA receptor (Homo sapiens (Human), UniProt P04629)
Assay: TrkA functional activity, DiscoverX PathHunter assay
Assay type: cell-based
Details: U2OS cells expressing human TrkA-PK, Shc1-EA and p75NTR; compound 1 h, then NGF at ~80% of maximal response for 3 h; luminescence

human TrkA receptor, sequence (P04629 33-796): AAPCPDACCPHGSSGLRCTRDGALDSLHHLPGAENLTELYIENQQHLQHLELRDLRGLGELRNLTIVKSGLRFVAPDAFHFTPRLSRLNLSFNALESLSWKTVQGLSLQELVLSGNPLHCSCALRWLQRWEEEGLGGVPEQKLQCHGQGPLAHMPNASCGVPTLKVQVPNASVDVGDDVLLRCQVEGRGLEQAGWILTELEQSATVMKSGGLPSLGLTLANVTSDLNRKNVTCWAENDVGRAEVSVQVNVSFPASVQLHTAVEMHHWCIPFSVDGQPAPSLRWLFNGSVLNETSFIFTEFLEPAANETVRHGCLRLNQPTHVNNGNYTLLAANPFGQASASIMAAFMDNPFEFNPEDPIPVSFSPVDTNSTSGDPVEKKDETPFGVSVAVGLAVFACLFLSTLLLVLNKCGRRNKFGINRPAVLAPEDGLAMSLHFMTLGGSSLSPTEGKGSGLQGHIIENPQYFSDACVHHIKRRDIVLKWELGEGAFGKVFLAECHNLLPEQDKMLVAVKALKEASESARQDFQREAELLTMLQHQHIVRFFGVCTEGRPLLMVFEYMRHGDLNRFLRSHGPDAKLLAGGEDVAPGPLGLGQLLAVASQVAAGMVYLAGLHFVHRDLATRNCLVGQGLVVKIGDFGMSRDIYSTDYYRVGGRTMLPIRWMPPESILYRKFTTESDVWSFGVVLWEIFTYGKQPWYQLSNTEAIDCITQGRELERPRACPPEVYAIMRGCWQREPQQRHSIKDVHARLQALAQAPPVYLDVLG

Row | pIC50 | SMILES
1 | 8.57 | Cn1ccc(-c2cc(C(=O)Nc3c4ccc([C@@H](N)C(F)(F)F)cc4nn3-c3ccccc3)ccc2C(F)(F)F)n1 [Compound 100]
2 | 8.54 | NC(=O)c1ccc2c(NC(=O)c3cc(-c4ccccn4)c(C(F)(F)F)cc3F)n(-c3ccccc3)nc2c1 [Compound 81, 3-({[2-fluoro-5-pyridin-2-yl-4-(trifluoromethyl)phenyl]carbonyl}amino)-2-phenyl-2H-indazole-6-carboxamide]
3 | 7.96 | O=C(CO)NCc1ccc2c(NC(=O)c3cc(-c4ncccn4)c(C(F)(F)F)cc3F)n(-c3ccccc3)nc2c1 [Compound 98, 2-Fluoro-N-(6-((2-hydroxyacetamido)methyl)-2-phenyl-2H-indazol-3-yl)-5-(pyrimidin-2-yl)-4-(trifluoromethyl)benzamide]
4 | 8.05 | CNC(=O)Cc1ccc2c(NC(=O)c3cc(-c4ncccn4)c(C(F)(F)F)cc3F)n(-c3ccccc3)nc2c1 [Compound 96, 2-fluoro-N-{6-[2-(methylamino)-2-oxoethyl]-2-phenyl-2H-indazol-3-yl}-5-pyrimidin-2-yl-4-(trifluoromethyl)benzamide]
5 | 7.54 | O=C(Nc1c2ccc(C3CCCN3)cc2nn1-c1ccccc1)c1cc(-c2ncccn2)c(C(F)(F)F)cc1F (single isomer, unassigned) [Compound 102, (R and S)-2-Fluoro-N-(2-phenyl-6-(pyrrolidin-2-yl)-2H-indazol-3-yl)-5-(pyrimidin-2-yl)-4-(trifluoromethyl)benzamide, isomers A and B]
6 | 9.19 | Cn1ccc(-c2cc(C(=O)Nc3c4cccc(CC(N)=O)c4nn3-c3ccccc3)c(F)cc2C(F)(F)F)n1 [Compound 95, N-(7-(2-Amino-2-oxoethyl)-2-phenyl-2H-indazol-3-yl)-2-fluoro-5-(1-methyl-1H-pyrazol-3-yl)-4-(trifluoromethyl)benzamide]
7 | 7.54 | O=C(Nc1c2ccc(C3CCCN3)cc2nn1-c1ccccc1)c1cc(-c2ncccn2)c(C(F)(F)F)cc1F (single isomer, unassigned) [Compound 103, (R and S)-2-Fluoro-N-(2-phenyl-6-(pyrrolidin-2-yl)-2H-indazol-3-yl)-5-(pyrimidin-2-yl)-4-(trifluoromethyl)benzamide, isomers A and B]
8 | 7.89 | NC(=O)c1cnc2c(NC(=O)c3ccc(C(F)(F)F)c(-c4ncccn4)c3)n(-c3ccccc3)nc2c1 [Compound 88, 2-phenyl-3-({[3-pyrimidin-2-yl-4-(trifluoromethyl)phenyl]carbonyl}amino)-2H-pyrazolo[4,3-b]pyridine-6-carboxamide]
9 | 7.85 | O=C(NCCO)c1ccc2c(NC(=O)c3cc(-c4ncccn4)c(C(F)(F)F)cc3Cl)n(-c3ccccc3)nc2c1 [Compound 90, 3-({[2-chloro-5-pyrimidin-2-yl-4-(trifluoromethyl)phenyl]carbonyl}amino)-N-(2-hydroxyethyl)-2-phenyl-2H-indazole-6-carboxamide]

The next lines start with the compound.

Row | SMILES | pIC50
10 | CC(O)c1ccc2nn(-c3ccccc3)c(NC(=O)c3cc(-c4cc[nH]n4)c(C(F)(F)F)cc3F)c2n1 (single isomer, unassigned; isomer b) [Compound 32, (R or S)-2-fluoro-N-[5-(1-hydroxyethyl)-2-phenyl-2H-pyrazolo[4,3-b]pyridin-3-yl]-5-(1H-pyrazol-3-yl)-4-(trifluoromethyl)benzamide, isomer B] | 8.29
11 | Cn1ccc(-c2cc(C(=O)Nc3c4cc(C(F)(F)F)ccc4nn3-c3ccccc3)c(F)cc2C(F)(F)F)n1 [Compound 7, 2-fluoro-5-(1-methyl-1H-pyrazol-3-yl)-N-[2-phenyl-5-(trifluoromethyl)-2H-indazol-3-yl]-4-(trifluoromethyl)benzamide] | 7.54
12 | CC(O)c1cnc2c(NC(=O)c3cc(-c4cc[nH]n4)c(C(F)(F)F)cc3F)n(-c3ccccc3)nc2c1 (single isomer, unassigned) [Compound 22, 2-Fluoro-N-(6-(1-hydroxyethyl)-2-phenyl-2H-pyrazolo[4,3-b]pyridin-3-yl)-5-(1H-pyrazol-3-yl)-4-(trifluoromethyl)benzamide, isomers A and B] | 8.92
13 | O=C(Nc1c2cc(C(O)C(F)F)ccc2nn1-c1ccccc1)c1cc(-c2ncccn2)c(C(F)(F)F)cc1F (single isomer, unassigned; isomer a) [Compound 58, (R or S)-N-[5-(2,2-difluoro-1-hydroxyethyl)-2-phenyl-2H-indazol-3-yl]-2-fluoro-5-pyrimidin-2-yl-4-(trifluoromethyl)benzamide, isomer A] | 8.16
14 | CC(N)c1ccc2c(NC(=O)c3cc(-c4ncccn4)c(C(F)(F)F)cc3F)n(-c3ccccc3)nc2c1 (single isomer, unassigned) [Compound 69, (R or S)-N-{6-[1-aminoethyl]-2-phenyl-2H-indazol-3-yl}-2-fluoro-5-pyrimidin-2-yl-4-(trifluoromethyl)benzamide] | 8.15
15 | O=C(Nc1c2cc(C(O)C(F)F)ccc2nn1-c1ccccc1)c1cc(-c2ncccn2)c(C(F)(F)F)cc1F (single isomer, unassigned; isomer b) [Compound 59, (R or S)-N[5-(2,2-difluoro-1-hydroxyethyl)-2-phenyl-2H-indazol-3-yl]-2-fluoro-5-pyrimidin-2-yl-4-(trifluoromethyl)benzamide, isomer B] | 8.31
16 | O=C(Nc1c2cc(CO)ncc2nn1-c1ccccc1)c1cc(-c2ncccn2)c(C(F)(F)F)cc1F [Compound 11, 2-Fluoro-N-(5-(hydroxymethyl)-2-phenyl-2H-pyrazolo[3,4-c]pyridin-3-yl)-5-(pyrimidin-2-yl)-4-(trifluoromethyl)benzamide] | 7.70
17 | Cc1cc(-n2nc3ccc(CO)cc3c2NC(=O)c2cc(-c3ncccn3)c(C(F)(F)F)cc2F)n[nH]1 [Compound 15, 2-fluoro-N-[5-(hydroxymethyl)-2-(5-methyl-1H-pyrazol-3-yl)-2H-indazol-3-yl]-5-pyrimidin-2-yl-4-(trifluoromethyl)benzamide] | 7.13
18 | NC(=O)c1cnc2c(NC(=O)c3cc(-c4ncccn4)c(C(F)(F)F)cc3F)n(-c3ccccc3)nc2c1 [Compound 75, 3-(2-Fluoro-5-(pyrimidin-2-yl)-4-(trifluoromethyl)benzamido)-2-phenyl-2H-pyrazolo[4,3-b]pyridine-6-carboxamide] | 8.14
19 | Cn1ccc(-c2cc(C(=O)Nc3c4cc(C#N)ccc4nn3-c3ccccc3)ccc2C(F)(F)F)n1 [Compound 4, N-(5-cyano-2-phenyl-2H-indazol-3-yl)-3-(1-methyl-1H-pyrazol-3-yl)-4-(trifluoromethyl)benzamide] | 8.06
20 | O=C(Nc1c2[nH]c(=O)ccc2nn1-c1ccccc1)c1cc(-c2ncccn2)c(C(F)(F)F)cc1F [Compound 2, 2-Fluoro-N-(5-oxo-2-phenyl-4,5-dihydro-2H-pyrazolo[4,3-b]pyridin-3-yl)-5-(pyrimidin-2-yl)-4-(trifluoromethyl)benzamide] | 8.22
21 | CC(O)c1cnc2c(NC(=O)c3cc(-c4ncccn4)c(C(F)(F)F)cc3Cl)n(-c3ccccc3)nc2c1 (single isomer, unassigned; isomer a) [Compound 35, (R or S)-2-chloro-N-[6-(1-hydroxyethyl)-2-phenyl-2H-pyrazolo[4,3-b]pyridin-3-yl]-5-pyrimidin-2-yl-4-(trifluoromethyl)benzamide, isomer A] | 8.77
22 | CC(O)c1ccc2nn(-c3ccccc3)c(NC(=O)c3ccc(C(F)(F)F)c(-c4ccn(C)n4)c3)c2c1 (single isomer, unassigned; isomer a) [Compound 23, (R or S)-N-[5-(1-hydroxyethyl)-2-phenyl-2H-indazol-3-yl]-3-(1-methyl-1H-pyrazol-3-yl)-4-(trifluoromethyl)benzamide, isomer A] | 8.43
23 | O=C(Nc1c2ccc(CO)cc2nn1-c1ccccc1)c1cc(-c2ncccn2)c(C(F)(F)F)cc1F [Compound 13, 2-fluoro-N-[6-(hydroxymethyl)-2-phenyl-2H-indazol-3-yl]-5-pyrimidin-2-yl-4-(trifluoromethyl)benzamide] | 8.42
24 | O=C(Nc1c2cc(CCO)ccc2nn1-c1ccccc1)c1cc(-c2ncccn2)c(C(F)(F)F)cc1F [Compound 61, 2-fluoro-N-[5-(2-hydroxyethyl)-2-phenyl-2H-indazol-3-yl]-5-pyrimidin-2-yl-4-(trifluoromethyl)benzamide] | 8.51
25 | CC(C)(O)c1cnc2c(NC(=O)c3cc(-c4cc[nH]n4)c(C(F)(F)F)cc3F)n(-c3ccccc3)nc2c1 [Compound 47, 2-fluoro-N-[6-(1-hydroxy-1-methylethyl)-2-phenyl-2H-pyrazolo[4,3-b]pyridin-3-yl]-5-(1H-pyrazol-3-yl)-4-(trifluoromethyl)benzamide] | 8.59
26 | O=C(Nc1c2ccc(C(O)C(F)F)cc2nn1-c1ccccc1)c1cc(-c2ncccn2)c(C(F)(F)F)cc1F (single isomer, unassigned; isomer a) [Compound 56, (R or S)-N-[6-(2,2-difluoro-1-hydroxyethyl)-2-phenyl-2H-indazol-3-yl]-2-fluoro-5-pyrimidin-2-yl-4-(trifluoromethyl)benzamide, isomer A] | 8.55
27 | O=C(Nc1c2ccc(CO)cc2nn1-c1ccccc1)c1cc(-c2cc[nH]n2)c(C(F)(F)F)cc1F [Compound 14, 2-fluoro-N-[6-(hydroxymethyl)-2-phenyl-2H-indazol-3-yl]-5-(1H-pyrazol-3-yl)-4-(trifluoromethyl)benzamide] | 8.92
28 | O=C(Nc1c2ncccc2nn1-c1cccc(CO)c1)c1cc(-c2ncccn2)c(C(F)(F)F)cc1F [Compound 3, 2-Fluoro-N-(2-(3-(hydroxymethyl)phenyl)-2H-pyrazolo[4,3-b]pyridin-3-yl)-5-(pyrimidin-2-yl)-4-(trifluoromethyl)benzamide] | 6.91
29 | CC(O)c1cnc2c(NC(=O)c3cc(-c4ccn(C)n4)c(C(F)(F)F)cc3F)n(-c3ccccc3)nc2c1 (single isomer, unassigned; isomer a) [Compound 33, (R or S)-2-fluoro-N-[6-(1-hydroxyethyl)-2-phenyl-2H-pyrazolo[4,3-b]pyridin-3-yl]-5-(1-methyl-1H-pyrazol-3-yl)-4-(trifluoromethyl)benzamide, isomer A] | 9.60
